Experimental data: patent publication US9169254B2, “Spiroimidazolone derivative” (Chugai Seiyaku Kabushiki Kaisha, priority 2009, dated 2015)

Target: T1, human PTH1 receptor (Homo sapiens, UniProt Q03431)
T1 sequence (Q03431 27-593): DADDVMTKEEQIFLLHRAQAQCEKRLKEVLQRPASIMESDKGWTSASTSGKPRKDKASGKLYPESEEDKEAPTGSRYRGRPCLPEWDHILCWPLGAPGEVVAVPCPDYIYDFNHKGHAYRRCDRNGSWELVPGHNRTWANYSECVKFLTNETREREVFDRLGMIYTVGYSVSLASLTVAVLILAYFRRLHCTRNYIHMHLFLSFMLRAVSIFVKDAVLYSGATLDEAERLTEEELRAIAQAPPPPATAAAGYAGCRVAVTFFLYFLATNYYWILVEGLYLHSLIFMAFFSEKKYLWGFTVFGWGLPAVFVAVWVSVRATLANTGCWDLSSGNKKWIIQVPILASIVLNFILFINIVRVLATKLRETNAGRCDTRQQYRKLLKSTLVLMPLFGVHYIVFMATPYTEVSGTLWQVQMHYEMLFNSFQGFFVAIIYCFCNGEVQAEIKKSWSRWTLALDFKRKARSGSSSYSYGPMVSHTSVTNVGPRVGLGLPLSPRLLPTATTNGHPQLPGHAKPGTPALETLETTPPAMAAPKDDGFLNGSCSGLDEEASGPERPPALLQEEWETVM
Test: In vitro cAMP signal activity in HKRK-B7 cells (LLC-PK1 cells overexpressing the human PTH1 receptor)
Type: cell-based
Conditions: HKRK-B7 cells, cAMP produced as percentage of that produced by hPTH(1-34) at 100 nM

| Compound | cAMP production activity (%) (compound at 1×10^−3 M) | cAMP production activity (%) (compound at 3×10^−4 M (* Compound 15)) |
| --- | --- | --- |
| Cc1cc(C(=O)N2CC(F)C2)cc(C)c1/C=C/S(=O)(=O)N1CCC2(CC1)N=C(c1cccc(OC(F)(F)F)c1)NC2=O [Compound 963, 8-{(E)-2-[4-(3-Fluoro-azetidine-1-carbonyl)-2,6-dimethyl-phenyl]-ethenesulfonyl}-2-(3-trifluoromethoxy-phenyl)-1,3,8-triaza-spiro[4.5]dec-1-en-4-one] | 16 |  |
| Cc1cc(C(=O)N2CCCO2)cc(C)c1/C=C/S(=O)(=O)N1CCC2(CC1)N=C(C1CCC(C)CC1)NC2=O (centres unmarked) [Compound 1001, 8-{(E)-2-[4-(isoxazolidine-2-carbonyl)-2,6-dimethyl-phenyl]-ethenesulfonyl}-2-(4-methyl-cyclohexyl)-1,3,8-triaza-spiro[4.5]dec-1-en-4-one] | 64 |  |
| CC(=O)N1CCC(C2=NC3(CCN(S(=O)(=O)c4cccc(Cl)c4)CC3)C(=O)N2)CC1 [Compound 15, 2-(1-acetyl-piperidin-4-yl)-8-(3-chloro-benzenesulfonyl)-1,3,8-triaza-spiro[4.5]dec-1-en-4-one] |  | 1.8* % |
| O=C1NC(C2CCCCC2)=NC12CCN(S(=O)(=O)c1cccc(Cl)c1)C2 (centres unmarked) [Compound 72, 7-(3-chloro-benzenesulfonyl)-2-cyclohexyl-1,3,7-triaza-spiro[4.4]non-1-en-4-one] | 1.5 |  |
| O=C(CCc1ccccc1)N1CCCC(C2=NC3(CCN(S(=O)(=O)CCc4cccc5ccccc45)CC3)C(=O)N2)C1 (centres unmarked) [Compound 429, 8-(2-naphthalen-1-yl-ethanesulfonyl)-2-[1-(3-phenyl-propionyl)-piperidin-3-yl]-1,3,8-triaza-spiro[4.5]dec-1-en-4-one] | 38 |  |
| Cc1cc(C(=O)N2CCC(O)CC2)cc(C)c1CCS(=O)(=O)N1CCC2(CC1)N=C(c1ccc3c(c1)OC(F)(F)O3)NC2=O [Compound 1333, 2-(2,2-difluoro-benzo[1,3]dioxol-5-yl)-8-{2-[4-(4-hydroxy-piperidine-1-carbonyl)-2,6-dimethyl-phenyl]-ethanesulfonyl}-1,3,8-triaza-spiro[4.5]dec-1-en-4-one] | 109 |  |
| Cc1cc(C(=O)N2CCCC2)ccc1CCS(=O)(=O)N1CCC2(CC1)N=C(c1ccc(F)c(C(F)(F)F)c1)NC2=O [Compound 856, 2-(4-fluoro-3-trifluoromethyl-phenyl)-8-{2-[2-methyl-4-(pyrrolidine-1-carbonyl)-phenyl]-ethanesulfonyl}-1,3,8-triaza-spiro[4.5]dec-1-en-4-one] | 81 |  |
| Cc1cc(C(=O)N2CCN(CCO)CC2)ccc1CCS(=O)(=O)N1CCC2(CC1)N=C(c1cccc(OC(F)(F)F)c1)NC2=O [Compound 416, 8-(2-{4-[4-(2-Hydroxy-ethyl)-piperazine-1-carbonyl]-2-methyl-phenyl}-ethanesulfonyl)-2-(3-trifluoromethoxy-phenyl)-1,3,8-triaza-spiro[4.5]dec-1-en-4-one] | 66 |  |
| Cc1cc(C(=O)N2CCC(O)(CF)CC2)cc(C)c1/C=C/S(=O)(=O)N1CCC2(CC1)N=C(c1ccc(OCC(F)(F)C(F)F)c(C(F)(F)F)c1)NC2=O [Compound 1251, 8-{(E)-2-[4-(4-fluoromethyl-4-hydroxy-piperidine-1-carbonyl)-2,6-dimethyl-phenyl]-ethenesulfonyl}-2-[4-(2,2,3,3-tetrafluoro-propoxy)-3-trifluoromethyl-phenyl]-1,3,8-triaza-spiro[4.5]dec-1-en-4-one] | 56 |  |
| Cc1c(CCS(=O)(=O)N2CCC3(CC2)N=C(C2CCC(C)CC2)NC3=O)ccc(N(C)C(N)=O)c1C (centres unmarked) [Compound 679, 1-(2,3-Dimethyl-4-{2-[2-(4-methyl-cyclohexyl)-4-oxo-1,3,8-triaza-spiro[4.5]dec-1-ene-8-sulfonyl]-ethyl}-phenyl)-1-methyl-urea] | 65 |  |
| CCCCC1CCC(C2=NC3(CCN(S(=O)(=O)CCc4ccc(C(=O)N(C)C)cc4C)CC3)C(=O)N2)CC1 (centres unmarked) [Compound 894, 4-{2-[2-(4-butyl-cyclohexyl)-4-oxo-1,3,8-triaza-spiro[4.5]dec-1-ene-8-sulfonyl]-ethyl}-3,N,N-trimethyl-benzamide] | 85 |  |
| CC(=O)Nc1ccc(CCS(=O)(=O)N2CCC3(CC2)N=C(C2CCCC2)NC3=O)c(C)c1 [Compound 903, N-{4-[2-(2-Cyclopentyl-4-oxo-1,3,8-triaza-spiro[4.5]dec-1-ene-8-sulfonyl)-ethyl]-3-methyl-phenyl}-acetamide] | 56 |  |
| CCS(=O)(=O)CCCCCCC1=NC2(CCN(S(=O)(=O)CCc3c(C)cc(N(C)C(N)=O)cc3C)CC2)C(=O)N1 [Compound 1320, 1-(4-{2-[2-(6-ethanesulfonyl-hexyl)-4-oxo-1,3,8-triaza-spiro[4.5]dec-1-ene-8-sulfonyl]-ethyl}-3,5-dimethyl-phenyl)-1-methyl-urea] | 10 |  |
| CC(=O)NCc1cc(C)c(/C=C/S(=O)(=O)N2CCC3(CC2)N=C(C2CCC(CCC(F)(F)F)CC2)NC3=O)c(C)c1 (centres unmarked) [Compound 558, N-[3,5-dimethyl-4-((E)-2-{4-oxo-2-[4-(3,3,3-trifluoro-propyl)-cyclohexyl]-1,3,8-triaza-spiro[4.5]dec-1-ene-8-sulfonyl}-vinyl)-benzyl]-acetamide] | 74 |  |
| Cc1cc(C(=O)N(C)C)cc(C)c1CCS(=O)(=O)N1CCC2(CC1)N=C(C1CCC(CCC(F)(F)F)CC1)NC2=O (centres unmarked) [Compound 1378, 3,5,N,N-Tetramethyl-4-(2-{4-oxo-2-[4-(3,3,3-trifluoro-propyl)-cyclohexyl]-1,3,8-triaza-spiro[4.5]dec-1-ene-8-sulfonyl}-ethyl)-benzamide] | 116 |  |
| O=C(c1ccc2[nH]ccc2c1)N1CCCC(C2=NC3(CCN(S(=O)(=O)CCc4cccc5ccccc45)CC3)C(=O)N2)C1 (centres unmarked) [Compound 428, 2-[1-(1H-Indol-5-carbonyl)-piperidin-3-yl]-8-(2-naphthalen-1-yl-ethanesulfonyl)-1,3,8-triaza-spiro[4.5]dec-1-en-4-one] | 8.8 |  |
| Cc1cc(/C=C/S(=O)(=O)N2CCC3(CC2)N=C(c2cccc(OC(F)(F)F)c2)NC3=O)cc(C)c1OCCC(O)CO (centres unmarked) [Compound 601, 8-{(E)-2-[4-(3,4-dihydroxy-butoxy)-3,5-dimethyl-phenyl]-ethenesulfonyl}-2-(3-trifluoromethoxy-phenyl)-1,3,8-triaza-spiro[4.5]dec-1-en-4-one] | 64 |  |
| Cc1cc(C(=O)N2CCC(O)CC2)cc(C)c1CCS(=O)(=O)N1CCC2(CC1)N=C(c1cccc(OC(F)(F)F)c1)NC2=O [Compound 964, 8-{2-[4-(4-Hydroxy-piperidine-1-carbonyl)-2,6-dimethyl-phenyl]-ethanesulfonyl}-2-(3-trifluoromethoxy-phenyl)-1,3,8-triaza-spiro[4.5]dec-1-en-4-one] | 119 |  |
| Cc1cc(CN2C(=O)CNC2=O)cc(C)c1/C=C/S(=O)(=O)N1CCC2(CC1)N=C(C1CCC(C)CC1)NC2=O (centres unmarked) [Compound 518, 3-(3,5-dimethyl-4-{(E)-2-[2-(4-methyl-cyclohexyl)-4-oxo-1,3,8-triaza-spiro[4.5]dec-1-ene-8-sulfonyl]-vinyl}-benzyl)-imidazolidine-2,4-dione] | 68 |  |
| COCCN(C(N)=O)c1cc(C)c(CCS(=O)(=O)N2CCC3(CC2)N=C(C2CCC(CCC(F)(F)F)CC2)NC3=O)c(C)c1 (centres unmarked) [Compound 827, 1-[3,5-dimethyl-4-(2-{4-oxo-2-[4-(3,3,3-trifluoro-propyl)-cyclohexyl]-1,3,8-triaza-spiro[4.5]dec-1-ene-8-sulfonyl}-ethyl)-phenyl]-1-(2-methoxy-ethyl)-urea] | 78 |  |
| O=C1NC(c2ccc(F)c(C(F)(F)F)c2)=NC12CCN(S(=O)(=O)/C=C/c1cccc3c1ccn3C[C@H](O)CO)CC2 [Compound 643, 8-{(E)-2-[1-((S)-2,3-dihydroxy-propyl)-1H-indol-4-yl]-ethenesulfonyl}-2-(4-fluoro-3-trifluoromethyl-phenyl)-1,3,8-triaza-spiro[4.5]dec-1-en-4-one] | 94 |  |
| CCCCC1CCC(C2=NC3(CCN(S(=O)(=O)/C=C/c4c(C)cc(N(CCOCCO)C(C)=O)cc4C)CC3)C(=O)N2)CC1 (centres unmarked) [Compound 716, N-(4-{(E)-2-[2-(4-Butyl-cyclohexyl)-4-oxo-1,3,8-triaza-spiro[4.5]dec-1-ene-8-sulfonyl]-vinyl}-3,5-dimethyl-phenyl)-N-[2-(2-hydroxy-ethoxy)-ethyl]-acetamide] | 62 |  |
| CCOCC1CCC(C2=NC3(CCN(S(=O)(=O)CCc4ccc(NC(C)=O)cc4C)CC3)C(=O)N2)CC1 (centres unmarked) [Compound 910, N-(4-{2-[2-(4-ethoxymethyl-cyclohexyl)-4-oxo-1,3,8-triaza-spiro[4.5]dec-1-ene-8-sulfonyl]-ethyl}-3-methyl-phenyl)-acetamide] | 64 |  |
